According to PubChem BioAssay (NCI):
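Briefly, cells in 96-well plates were exposed to five compound concentrations for 48 h, and endpoints were estimated by linear interpolation. Abbreviation: GI50, concentration required for 50% inhibition of growth. TGI: total growth inhibition.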

Columns and labels:
Assay in all cases: NCI anticancer screen, dose series, 48 h
[1] = system: SK-OV-3 ovarian
[2] = system: HT29 colon
[3] = system: UACC-62 melanoma
[4] = system: HL-60(TB) leukemia
[5] = system: HOP-62 NSCLC
[6] = system: MCF7 breast
[7] = system: SF-295 CNS
[8] = system: SK-MEL-2 melanoma
[9] = system: U251 CNS
[10] = system: MALME-3M melanoma
[11] = system: TK-10 renal
[12] = system: NCI-H226 lung
[13] = system: COLO 205 colon
[14] = system: UACC-257 melanoma
[15] = system: HS 578T breast
[16] = system: UO-31 renal
[17] = system: NCI-H460 lung
[18] = system: SW-620 colon
[19] = system: NCI-H522 lung
[20] = system: OVCAR-5 ovarian
[21] = system: EKVX NSCLC
[22] = system: MOLT-4 leukemia
[23] = system: A549 NSCLC
[24] = system: SNB-19 CNS
[25] = system: PC-3 prostate
[26] = system: DU-145 prostate
[27] = system: SK-MEL-28 melanoma
[28] = system: SR leukemia

CNC(=O)c1cc(-n2ccc3cc(NC(=O)Nc4ccc(N5CCN(C)CC5)c(C(F)(F)F)c4)ccc32)ccn1
GI50 [1]: 4.21 µM
TGI [1]: 7.75 µM
GI50 [2]: 0.938 µM
TGI [2]: 3.59 µM
GI50 [3]: 4.15 µM
TGI [3]: 8.22 µM
GI50 [4]: 1.44 µM
TGI [4]: 6.33 µM
GI50 [5]: 3.41 µM
TGI [5]: 7.46 µM
GI50 [6]: 2.3 µM
TGI [6]: 6.34 µM
GI50 [7]: 0.492 µM
TGI [7]: 1.11 µM
GI50 [8]: 4.33 µM
TGI [8]: 7.95 µM
GI50 [9]: 2.43 µM
TGI [9]: 5.48 µM
GI50 [10]: 3.2 µM
TGI [10]: 6.71 µM
GI50 [11]: 4.39 µM
TGI [11]: 8.16 µM
GI50 [12]: > 25 µM
TGI [12]: > 25 µM
GI50 [13]: 4.21 µM
TGI [13]: 8.75 µM
GI50 [14]: 3.97 µM
TGI [14]: 7.6 µM
GI50 [15]: 2.03 µM
TGI [15]: 7.26 µM
GI50 [16]: 4.27 µM
TGI [16]: 8.56 µM
GI50 [17]: 4.1 µM
TGI [17]: 8.4 µM
GI50 [18]: 3.41 µM
TGI [18]: 7.11 µM
GI50 [19]: > 25 µM
TGI [19]: > 25 µM
GI50 [20]: 3.57 µM
TGI [20]: 7.74 µM
GI50 [21]: 3.46 µM
TGI [21]: 6.88 µM
GI50 [22]: 0.744 µM
TGI [22]: 2.91 µM
GI50 [23]: 3.58 µM
TGI [23]: 7.36 µM
GI50 [24]: 3.49 µM
TGI [24]: 7.23 µM
GI50 [25]: 3.6 µM
TGI [25]: 9.56 µM
GI50 [26]: 3.97 µM
TGI [26]: 7.52 µM
GI50 [27]: 2.96 µM
TGI [27]: 6.38 µM
GI50 [28]: 0.479 µM
TGI [28]: 2.85 µM
